Experimental data as given in patent US20130158084A1, “Pharmaceutical Composition Comprising Losartin For Treating or Preventing Statin BasedGrug-Induced Muscle Toxicity” (HANALL BIOPHARMA CO., LTD., priority 2011, published 2013).
Like-named read-outs stand apart in the source and are kept apart here.

Key:
[1] = system: extensor digitorum longus muscle; details: after three weeks
Protocol: In addition, a 0.5% MC solution or physiological saline was orally administered to a control group.
Then, the concentration of a muscle toxicity-associated enzyme, such as creatine kinase (CK) and lactate dehydrogenase (LDH) in blood was measured and a histological analysis was performed.
The rats were anesthetized with ether after three weeks of starting the administration for each experimental group; an extensor digitorum longus muscle was removed; fixed in paraffin; and then made into 5 μm coronal sections. The paraffin was removed with xylene, hydrophilicized with alcohol, and then stained with hematoxylin and eosin to observe the tissue through an optical microscope (Olympus Optical, Co., Japan).

[2] = after oral administration; cited from earlier work
[3] = Frequency of muscular side effects according to dosage (Zocor Tablet Label); format: in vivo; details: dosage of 80 mg compared to 20 mg
Text: In addition, it is reported that the side effects are increased when the concentration of the statin-based drug in blood is increased in the most cases. […] 16, 2011].

## CC(C)c1c(C(=O)Nc2ccccc2)c(-c2ccccc2)c(-c2ccc(F)cc2)n1CC[C@@H](O)C[C@@H](O)CC(=O)O [Atorvastatin, atorvastatin]
[1]; 40 mg/kg atorvastatin alone
  Degree of Muscle Tissue Damage, Scores (0: Normal, +1: internal nuclei, +2: Myositis, +3: internal nuclei + myositis): 1.0 ± 0.0
[1]; 80 mg/kg atorvastatin alone
  Degree of Muscle Tissue Damage, Scores (0: Normal, +1: internal nuclei, +2: Myositis, +3: internal nuclei + myositis): 1.8 ± 0.2

## CCCCc1nc(Cl)c(CO)n1Cc1ccc(-c2ccccc2-c2nn[nH]n2)cc1 [Losartan, 2-butyl-4 chloro-1-[2-(1H-tetrazol-5-yl)biphenyl-4-ylphenyl]-1H-imidazol-5-methanol]
[2]
  Time to maximum concentration in the blood (losartan molecules): within one hour

## CCC(C)(C)C(=O)O[C@H]1C[C@@H](C)C=C2C=C[C@H](C)[C@H](CC[C@@H]3C[C@@H](O)CC(=O)O3)[C@H]21 [simvastatin]
[3]
  Increase in frequency of muscular side effects, 80 mg compared to 20 mg: at least 20 times
